A short description of test [1]: Compound was tested for anti-HIV activity in MT-2/ IIIB cells and the ratio of the drug concentration (ID50) required to inhibit cell growth was reported. It counts as functional, Homo sapiens.
Another test concerns CCRF-CEM. Kind of test: Compound concentration required to inhibit cell growth by 50% against CEM cells. In kind it is functional. The conditions noted are these: Homo sapiens, read-out: ID50 (the source's name).
Test [2] relates to Human immunodeficiency virus. Kind of test: Compound concentration required to inhibit the viral cell proliferation by 50% against HIV; Range = 0.3-0.5. In kind it is functional, organism-based. The conditions noted are these: Human immunodeficiency virus 1.
Another test deals with Hepatitis B virus. The test is described as follows: Compound concentration required to inhibit the viral cell proliferation by 50% against HBV. It counts as functional, organism-based.
Test [3] has as its system Human immunodeficiency virus. The test is described as follows: Compound concentration required to inhibit the viral cell proliferation by 50% against HIV; Range = 0.1-0.2. In kind it is functional, organism-based. The conditions noted are these: Human immunodeficiency virus 1.
Test [4] relates to Human immunodeficiency virus. Kind of test: Compound concentration required to inhibit the viral cell proliferation by 50% against HIV; Range = 2-3. It counts as functional, organism-based. The conditions noted are these: Human immunodeficiency virus 1.

A word on the EC50: it is the concentration that produces a half-maximal response. A high value points to a less potent agent. Regarding `Nc1nc(=O)n([C@@H]2CC[C@H](CO)O2)cc1F`, in test [1], the ID50 ratio is greater than 100. Besides, the IC50 with CCRF-CEM came to 67000 nM. For the same molecule, the EC50 in test [2] was determined as 300 nM; in the test on Hepatitis B virus, 36 nM.
On to `Nc1nc(=O)n([C@@H]2C=C[C@H](CO)O2)cc1F` [ELVUCITABINE], for which the ID50 ratio in test [1] was 9. Also, in the test on CCRF-CEM, the IC50 was found to be 7000 nM. The EC50 in test [3] was determined as 100 nM; in the test with Hepatitis B virus, 8 nM.
On to `Nc1ccn([C@@H]2CS[C@H](CO)O2)c(=O)n1` [LAMIVUDINE], for which the EC50 in test [4] was found to be 2000 nM; in the test on Hepatitis B virus, 30 nM. Also, in test [1], the ID50 ratio is listed as greater than 100. Further, the IC50 with CCRF-CEM was 50000 nM.

Values taken from ChEMBL document CHEMBL1130851, “Synthesis and biological evaluation of a series of 2'-fluorinated-2',3'-dideoxy-2',3'-didehydro-(L)-nucleosides” (Bioorg Med Chem Lett, 1998).
